Measured values reported in US20150030561A1, “Use of CXCR4 Antagonists” (GENZYME CORP., priority 2011, published 2015).
Read-outs that look alike come from different tables or passages of the source.

How the values were obtained:
[1] = literature (Liles 2003; DiPersio 2009); cited from earlier work
[2] = system: patients with myelokathexis attributable to mutations of CXCR4
Procedure: […] intrapatient escalating dose levels, 20 mcg/kg, 40 mcg/kg, 80 mcg/kg, and 240 mcg/kg were exam in d. The subjects were patients at the University of Washington General Clinical Research Center for up to 10 days; the study requires the subject to be available for up to 14 days.
Complete blood counts were determined at 1, 3, 6, 9 and 24 hours with an automated counter and leukocyte differential counts confirmed manually. CD34^+ cells and lymphocyte subtypes were measured by FACS before and 6 hours after the 0.08 mg/kg dose.

## c1cc(CN2CCCNCCNCCCNCC2)ccc1CN1CCCNCCNCCCNCC1 [plerixafor]
[1]
  effect on circulating CD34+ cells: increases circulating CD34^+ cells
  leukocyte effect of subcutaneous administration: dose-dependent leukocytosis
[2]; 10 day testing period, except one patient with severe iron deficiency anemia
  hematocrit, hemoglobin and platelet counts: stable
[2]; all 6 patients
  leukocyte response: prompt leukocytosis
[2]; another patient, 0.24 mg/kg dose
  blood neutrophils 24 hours after dose: 2e+09 L⁻¹
[2]; controls (normal subjects similarly treated)
  fold increase, peak neutrophil response: 4.4 fold
[2]; one patient, 0.16 mg/kg dose
  blood neutrophils 24 hours after dose: greater than 2.0 ×10^9/L
[2]; patient group, single s.c. doses 0.02 to 0.24 mg/kg, mean baseline 0.4±0.1×10^9/L
  peak blood neutrophils (group mean of highest observed values): 4.5±0.78 ×10^9/L
[2]; patients
  absolute lymphocyte count increase from baseline to peak levels: approximately 14 fold
  absolute lymphocyte counts versus normal levels: transiently reached normal levels
  fold increase, peak neutrophil response: 8.2 fold
[2]; patients, 0.08 mg/kg dose, FACS before and 6 hours after
  CD34+ cells increase: ~6 fold
[2]; patients, s.c. single doses
  effect on neutropenia and lymphocytopenia: transiently correct neutropenia and lymphocytopenia
